Experiment: Phase I SRD/MRD safety and tolerability
Format: in vivo, human (healthy subjects)
[1] = SRD single dose 17.5 mg (n = 6)

C=CC(=O)N1CC[C@H](Oc2nc(-c3n[nH]c(=O)[nH]3)cc3ccccc23)C1 [TAK‐020]
11.1%: percentage of subjects who experienced TEAEs (SRD, overall TAK‐020 group)
1 (16.7) n (%): TEAEs (SRD single dose 2.5 mg (n = 6)) | TEAEs, Mild (SRD single dose 2.5 mg (n = 6)) | TEAEs, Related (SRD single dose 2.5 mg (n = 6)) | TEAEs (SRD single dose 8.8 mg (n = 6)) | TEAEs, Mild (SRD single dose 8.8 mg (n = 6)) | TEAEs, Related (SRD single dose 8.8 mg (n = 6)) | TEAEs, Related (SRD single dose 70 mg (n = 6)) | TEAEs (SRD single dose 105 mg (n = 6)) | TEAEs, Mild (SRD single dose 105 mg (n = 6)) | TEAEs, Not related (SRD single dose 105 mg (n = 6))
2 (33.3) n (%): TEAEs, Not related (SRD single dose 70 mg (n = 6))
0 n (%): TEAEs (SRD single dose 0.1 mg (n = 6)) | TEAEs Leading to DC (SRD single dose 0.1 mg (n = 6)) | TEAEs, Mild (SRD single dose 0.1 mg (n = 6)) | TEAEs, Moderate (SRD single dose 0.1 mg (n = 6)) | TEAEs, Not related (SRD single dose 0.1 mg (n = 6)) | TEAEs, Related (SRD single dose 0.1 mg (n = 6)) | TEAEs, Severe (SRD single dose 0.1 mg (n = 6)) | Deaths (SRD single dose 0.5 mg (n = 6)) | Serious TEAEs (SRD single dose 0.5 mg (n = 6)) | Serious TEAEs, Not related (SRD single dose 0.5 mg (n = 6)) | Serious TEAEs, Related (SRD single dose 0.5 mg (n = 6)) | TEAEs (SRD single dose 0.5 mg (n = 6)) | TEAEs Leading to DC (SRD single dose 0.5 mg (n = 6)) | TEAEs, Mild (SRD single dose 0.5 mg (n = 6)) | TEAEs, Moderate (SRD single dose 0.5 mg (n = 6)) | TEAEs, Not related (SRD single dose 0.5 mg (n = 6)) | TEAEs, Related (SRD single dose 0.5 mg (n = 6)) | TEAEs, Severe (SRD single dose 0.5 mg (n = 6)) | Deaths (SRD single dose 2.5 mg (n = 6)) | Serious TEAEs (SRD single dose 2.5 mg (n = 6)) | Serious TEAEs, Not related (SRD single dose 2.5 mg (n = 6)) | Serious TEAEs, Related (SRD single dose 2.5 mg (n = 6)) | TEAEs Leading to DC (SRD single dose 2.5 mg (n = 6)) | TEAEs, Moderate (SRD single dose 2.5 mg (n = 6)) | TEAEs, Not related (SRD single dose 2.5 mg (n = 6)) | TEAEs, Severe (SRD single dose 2.5 mg (n = 6)) | Deaths (SRD single dose 4.4 mg (n = 6)) | Serious TEAEs (SRD single dose 4.4 mg (n = 6)) | Serious TEAEs, Not related (SRD single dose 4.4 mg (n = 6)) | Serious TEAEs, Related (SRD single dose 4.4 mg (n = 6)) | TEAEs (SRD single dose 4.4 mg (n = 6)) | TEAEs Leading to DC (SRD single dose 4.4 mg (n = 6)) | TEAEs, Mild (SRD single dose 4.4 mg (n = 6)) | TEAEs, Moderate (SRD single dose 4.4 mg (n = 6)) | TEAEs, Not related (SRD single dose 4.4 mg (n = 6)) | TEAEs, Related (SRD single dose 4.4 mg (n = 6)) | TEAEs, Severe (SRD single dose 4.4 mg (n = 6)) | Deaths (SRD single dose 8.8 mg (n = 6)) | Serious TEAEs (SRD single dose 8.8 mg (n = 6)) | Serious TEAEs, Not related (SRD single dose 8.8 mg (n = 6)) | Serious TEAEs, Related (SRD single dose 8.8 mg (n = 6)) | TEAEs Leading to DC (SRD single dose 8.8 mg (n = 6)) | TEAEs, Moderate (SRD single dose 8.8 mg (n = 6)) | TEAEs, Not related (SRD single dose 8.8 mg (n = 6)) | TEAEs, Severe (SRD single dose 8.8 mg (n = 6)) | Deaths [1] | Serious TEAEs [1] | Serious TEAEs, Not related [1] | Serious TEAEs, Related [1] | TEAEs [1] | TEAEs Leading to DC [1] | TEAEs, Mild [1] | TEAEs, Moderate [1] | TEAEs, Not related [1] | TEAEs, Related [1] | TEAEs, Severe [1] | Deaths (SRD single dose 35 mg (n = 6)) | Serious TEAEs (SRD single dose 35 mg (n = 6)) | Serious TEAEs, Not related (SRD single dose 35 mg (n = 6)) | Serious TEAEs, Related (SRD single dose 35 mg (n = 6)) | TEAEs (SRD single dose 35 mg (n = 6)) | TEAEs Leading to DC (SRD single dose 35 mg (n = 6)) | TEAEs, Mild (SRD single dose 35 mg (n = 6)) | TEAEs, Moderate (SRD single dose 35 mg (n = 6)) | TEAEs, Not related (SRD single dose 35 mg (n = 6)) | TEAEs, Related (SRD single dose 35 mg (n = 6)) | TEAEs, Severe (SRD single dose 35 mg (n = 6)) | Deaths (SRD single dose 70 mg (n = 6)) | Serious TEAEs (SRD single dose 70 mg (n = 6)) | Serious TEAEs, Not related (SRD single dose 70 mg (n = 6)) | Serious TEAEs, Related (SRD single dose 70 mg (n = 6)) | TEAEs Leading to DC (SRD single dose 70 mg (n = 6)) | TEAEs, Moderate (SRD single dose 70 mg (n = 6)) | TEAEs, Severe (SRD single dose 70 mg (n = 6)) | Deaths (SRD single dose 105 mg (n = 6)) | Serious TEAEs (SRD single dose 105 mg (n = 6)) | Serious TEAEs, Not related (SRD single dose 105 mg (n = 6)) | Serious TEAEs, Related (SRD single dose 105 mg (n = 6)) | TEAEs Leading to DC (SRD single dose 105 mg (n = 6)) | TEAEs, Moderate (SRD single dose 105 mg (n = 6)) | TEAEs, Related (SRD single dose 105 mg (n = 6)) | TEAEs, Severe (SRD single dose 105 mg (n = 6))
3 (50.0) n (%): TEAEs (SRD single dose 70 mg (n = 6)) | TEAEs, Mild (SRD single dose 70 mg (n = 6))
